Source: patent US10695330B2, “Methods of treatment” (Global Blood Therapeutics, Inc., priority 2015, dated 2020)

Test system: activated neutrophils
Assay: Oxidative burst in activated neutrophils
Type: cell-based
Conditions: in vitro
Description: Reactive oxygen species (ROS) released from activated white blood cells cause lung injury as well as fibrotic changes in patients with IPF. […] Thus, the compounds described herein could also provide a method to inhibit the adverse effects of inflammation in a patient. Reduction in systemic pro-inflammatory cytokines (tumor necrosis alpha and interleukin-6) also has the potential to exert a broad anti-inflammatory effect which would supplement the beneficial effect of alleviation of hypoxemia via increased hemoglobin-O2 affinity.

O=Cc1ccc(CO)o1 [Compound 5-HMF, 5-hydroxymethyl-2-furfural, reference compound]
anti-oxidative activity (oxidative burst): does not display this activity
